Measured values taken from patent US20160090351A1, “INHIBITORS OF DEUBIQUITINATING PROTEASES” (BRANDEIS UNIVERSITY, priority 2013, published 2016).

Key:
Bcr-Abl kinase = assay: Bcr-Abl levels in K562 cells by immunoblotting; assay type: cell-based, human; settings: for levels of Bcr-Abl: 50 μM, 2 h
Experimental: K562 cells are from a myelogenous leukemia line that expresses Bcr-Abl kinase. A. K562 cells were treated with TU50 for 24 hours after which time the cells were treated with annexin V-FITC and propidium iodide. Cells were then analyzed by flow cytometry. Cells showing only annexin V-FITC were considered apoptotic whereas cells showing both annexin V-FITC and propidium iodide were considered necrotic. N=2. All points show a significant difference to the vehicle (DMSO) with p<0.05. […] All points show a significant difference to vehicle (DMSO) with p<0.02. C. Same as A, but the incubation period was 8 hours. N>2. All points show a significant difference to DMSO with p<0.02. D, K562 cells were treated with TU50 for 4 hours. Samples were analyzed by SDS-PAGE and immunoblotting with anti-Bcr-Abl antibody. E. Quantitation of blot in D. The signal for tubulin was used to normalize the Bcr-Abl signal. N=3.
FIG. 34 depicts data showing that diphenylcarbonates cause the accumulation of HMW-Ub and reduce the levels of Bcr-Abl in K562 cells. A. K562 cells were treated with diphenyl carbonates (50 μM) for 2 h and then assayed for the accumulation of K48-linked Ub. B. As in A, but Bcr-Abl was measured by immunoblotting with anti-Abl antibodies. C. K562 cells were treated with C17 (50 μM) in the presence and absence of bortezomib (6 μM) for 4 hours and Bcr-Abl was measured by immunblotting with anti-Abl antibodies. D. Quantitation of blot in C. Significance: DMSO relative to C17 and bortezomib p=0.002; DMSO relative to C17, p=0.03. E. K562 cells were treated with C15 for 4 hours then analyzed for SMAD4 monoubiquitination by western blot. F. Quantitation of blots in A. (N=3). See also FIG. 40.
FIG. 40 depicts data showing that diphenyl carbonates induce the degradation of Bcr-Abl kinase. A. K562 cells were treated with C17 for 24 h (1 dose) then analyzed for Bcr-Abl expression by western blot with anti-Abl antibody. B. Quantitation of blots in A normalized to actin. C. K562 cells were treated with C17 for 24 h then the amount of cells in G1 and apoptosis were recorded (N=3). D. K562 were treated with C15 for 4 h then analyzed for Bcr-Abl expression using western blot. E. Quantitation of Bcr-Abl from D normalized to tubulin (N=4). F. Same K562 lysates were separately analyzed for K63-linked ubiquitin. G. Quantitation of blots in F (N=4). Differences between all bars is significant p<0.01). H. K562 cells were treated with C15 for 24 h after which time cells were fixed in ethanol, treated with propodium iodide/RNAse then analyzed by FACS. Viability was calculated using forward and side scatter. I. Same experiment as H but red fluorescence was measured to determine DNA content
Transfected cells were harvested 1.5 days post transfection. […] Typically clarified lysate was analyzed.

HEK 293T cells = assay: accumulation of K48- and K63-linked Ub species in HEK 293T cells; assay type: cell-based, human; settings: 50 μM, 2 h
Experimental: FIG. 32 depicts data showing that diphenyl carbonates inhibit DUBs in HEK 293T cells. A. Viability of HEK 293T cells assessed by the propidium iodide exclusion method: diphenyl carbonate (100 μM), bortezomib (V, 20 μM) and G5 (2 μM). N≧3, mean+/−s.d. B. HEK 293T cells were treated with the stated compounds (50 μM) for 2 h and then assayed for the accumulation of K48-linked Ub species. C. As in A, but K63-linked Ub was assayed. D. HEK 293T cells were treated with C14, C15, C17, C18 (100 μM) or DMSO for 2 hours, then harvested, lysed and treated with HA-Ub-VS. After 30 min, lysates were analyzed by SDS-PAGE and probed for HA, tubulin and actin. An intervening lane was removed for clarity. E. HEK 293T cells expressing Ub-G76V-GFP were treated with diphenyl carbonates (100 μM), bortezomib (20 μM) and G5 (2 μM). […] N>3, Mean+/−s.d. See also FIG. 39. […]

[1] = test system: USP9x, USP19, USP7/8, USP28/15; assay: HA-Ub-VS activity profiling in cell lysates, USPs; assay type: biochemical, human; settings: for HA-Ub-VS labeling of USPs: HEK 293T lysates
Experimental: (§1) HA-ubiquitin vinylsulfone (HA-Ub-VS) irreversibly labels DUBs by modifying the catalytic cysteine residue Inhibition of the DUB prevents HA-Ub-VS labeling and the band is. […] The interaction with UCHL1/3 is reversible.
(§2) Lysate labeling assay on untransfected cells (1.5 mg/mL) was run with the stated concentration of inhibitor (or 1% DMSO control) for between 19-60 mins. After this time HA-Ub-VS (1.5-0.7 μM) was added and incubated for 19 mins. After this time reaction mixture (9 μL) was removed and quenched in 2× (final concentration) reducing loading buffer. For recovery experiments, a lysate of 6 mg/mL was treated with saturating compound C14 (250 μM) and incubated for 40 mins. Afterward, the lysate was diluted to 0.6 mg/mL (final concentration of inhibitor 25 μM) in lysis buffer (final volume 100 μL), then HA-Ub-VS was added. Aliquots (15 μL) were removed at the stated time (5-119 mins) and immediately quenched in 2× (final concentration) reducing loading buffer. For all HA-Ub-VS experiments samples in loading buffer were heated only to 37° C. prior to loading on a gel. This assay is highly susceptible to concentration of lysate and HA-Ub-VS. Cell experiments were carried out as above with some modifications. For Cos-1 and MCF-7 cells, after trypsinization, media with compound was added to give a final concentration of compound equal to that used in the assay. Cell pellets were lysed on an ice/salt bath with a temperature of −5° C. and lysate was centrifuged for only 5 mins.
(§3) HA-Ub-VS is an irreversible inhibitor of DUBs that is widely used in activity profiling. If the DUB inhibitors react to form a thiocarbonylated enzyme as proposed (FIG. 29B), then HA-Ub-VS labeling will be blocked. Treatment of HEK 293T lysates with HA-Ub-VS produced the characteristic pattern of protein bands at 250, 150-100, 45, 38 and 36 kDa, generally ascribed to USP9x (292 kDa), USP19 (146 kDa), USP7/8 (128 and 127 kDa, respectively), USP28/15 (122 and 112 kDa, respectively), UCH-L5 (38 kDa), UCH-L3 (26 kDa) and UCH-L1 (25 kDa) as depicted in FIG. 31.
(§4) The effect of diphenylcarbonates on HA-Ub-VS labeling was assessed to investigate the selectivity of DUB inhibition. Lysates were preincubated with diphenyl carbonates (75 μM), then treated with HA-Ub-VS (FIG. 31A). […] These C17 and C22-sensitive DUBs are most likely USP9x, USP19, USP7/8 and UCHL5, based on molecular weight (FIGS. 31B and 38). The identity of USP7 was confirmed by immunoblotting (FIG. 38F). […] Similar behavior was observed on Cos-1 cell lysates (FIG. 38B).

UCH-L5, UCH-L3, UCH-L1 = assay: HA-Ub-VS activity profiling in cell lysates, UCH-Ls; assay type: biochemical, human; settings: for HA-Ub-VS labeling of UCHL enzymes: 75 μM, 30 minutes preincubation
Experimental: as §1, §2, §3, §4

[2] = 75 μM, 30 minutes preincubation

| SMILES | levels of Bcr-Abl (Bcr-Abl kinase) | accumulation of K48-linked HMW-Ub (HEK 293T cells) | accumulation of K63-linked Ub chains (HEK 293T cells) | HA-Ub-VS labeling of USPs [1, 2] | HA-Ub-VS labeling, dose response ([1]; at 12 μM) | HA-Ub-VS labeling of UCHL enzymes (UCH-L5, UCH-L3, UCH-L1; HEK 293T lysates) | inhibition of UCH-L1/3/5, dose response (UCH-L5, UCH-L3, UCH-L1; below 50 μM) | HA-Ub-VS labeling of USPs ([1]; preincubation with G5) | HA-Ub-VS labeling of UCH-Ls (UCH-L5, UCH-L3, UCH-L1; HEK 293T lysates, preincubation with G5) | Bcr-Abl, dose response (Bcr-Abl kinase; C15 4 h) |
| --- | --- | --- | --- | --- | --- | --- | --- | --- | --- | --- |
| NCc1ccc(OC(=O)Oc2ccc3ccccc3c2)cc1 [Compound C17] | caused a decrease in the levels of Bcr-Abl | K48-linked HMW-Ub species accumulated | increase the accumulation of K63-linked Ub chains | decreased HA-Ub-VS labeling of several USPs | significantly inhibited the labeling of several high molecular weight proteins | relatively little effect on the UCHL enzymes | little inhibition of UCH-L1/3/5 was observed below 50 μM |  |  |  |
| NCc1ccc(OC(=O)Oc2cccc3ccccc23)cc1 [Compound C18] | caused a decrease in the levels of Bcr-Abl | K48-linked HMW-Ub species accumulated | increase the accumulation of K63-linked Ub chains | decreased HA-Ub-VS labeling of several USPs |  | relatively little effect on the UCHL enzymes |  |  |  |  |
| O=C1/C(=C/c2ccc([N+](=O)[O-])cc2)CS(=O)(=O)C/C1=C\c1ccc([N+](=O)[O-])cc1 [Compound G5, reference compound] |  |  |  |  |  |  |  | decreased the labeling of all the USPs | UCH-L1 but not UCH-L3 |  |
| NCc1ccc(OC(=O)Oc2ccc(Br)cc2)cc1 [Compound C15, 4-(aminomethyl)phenyl(4-bromophenyl)carbonate] | caused a decrease in the levels of Bcr-Abl | K48-linked HMW-Ub species accumulated | increase the accumulation of K63-linked Ub chains | decreased HA-Ub-VS labeling of several USPs |  | relatively little effect on the UCHL enzymes |  |  |  | dose dependent decrease in Bcr-Abl |
| NCc1ccc(OC(=O)Oc2ccc(Cl)cc2)cc1 [Compound C14, 4-(aminomethyl)phenyl(4-chlorophenol)carbonate] | caused a decrease in the levels of Bcr-Abl | K48-linked HMW-Ub species accumulated | increase the accumulation of K63-linked Ub chains | decreased HA-Ub-VS labeling of several USPs |  | relatively little effect on the UCHL enzymes |  |  |  |  |
